Source: ChEMBL document CHEMBL1201862, “PubChem BioAssay data set” (2004)
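Results reflect a 48-hour exposure of cells in 96-well plates to compound at five concentrations. Here, GI50 denotes the concentration required for 50% inhibition of growth.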 Active and inactive are the calls of the source. Rule as the data show it: active = GI50 up to about 1.1 µM and inactive = higher. *1 amine or outer side, *2 acyl side, *3 side chain or, on linkers, in order; H or OH if unused. Where a SMILES comes first, the peptide text is derived from it. Bridges are numbered along the chain shown (N, C = ends). [ ]: non-standard residue; d: D form. X36 = CC[C@H](C)[C@@H](N[*:1])[C@@H](O)CC(=O)O[C@H](C(=O)[C@H](C)C(=O)[*:2])C(C)C; NMeY = CN[C@@H](Cc1ccc(O)cc1)C(=O)O

Tests used:
Assay in all cases: growth of human tumour cells (NCI), 48 h
COLO 205 = test system: COLO 205
K562 = test system: K562
NCI/ADR-RES = test system: NCI/ADR-RES
SNB-19 = test system: SNB-19
SK-MEL-5 = test system: SK-MEL-5
SNB-75 = test system: SNB-75
EKVX = test system: EKVX
HCT-116 = test system: HCT-116
RPMI-8226 = test system: RPMI-8226
SW-620 = test system: SW-620
SK-OV-3 = test system: SK-OV-3
786-0 = test system: 786-0
OVCAR-8 = test system: OVCAR-8
HL-60 = test system: HL-60
OVCAR-5 = test system: OVCAR-5
IGROV-1 = test system: IGROV-1
Malme-3M = test system: Malme-3M
MCF7 = test system: MCF7
MDA-MB-231 = test system: MDA-MB-231
SF-539 = test system: SF-539

SMILES | GI50 (COLO 205) | GI50 (K562) | GI50 (NCI/ADR-RES) | GI50 (SNB-19) | GI50 (SK-MEL-5) | GI50 (SNB-75) | GI50 (EKVX) | GI50 (HCT-116) | GI50 (RPMI-8226) | GI50 (SW-620) | GI50 (SK-OV-3) | GI50 (786-0) | GI50 (OVCAR-8) | GI50 (HL-60) | GI50 (OVCAR-5) | GI50 (IGROV-1) | GI50 (Malme-3M) | GI50 (MCF7) | GI50 (MDA-MB-231) | GI50 (SF-539)
Cc1c(NC(=O)CCl)c(=O)oc2c(C)c3occc(=O)c3cc12 | 14.3 µM (inactive) | 10.1 µM (inactive) | 18.6 µM (inactive) | 15.8 µM (inactive) | 10.9 µM (inactive) | 2.39 µM (inactive) | 18.9 µM (inactive) | 11.6 µM (inactive) | 7.87 µM (inactive) | 11.5 µM (inactive) | 18.2 µM (inactive) | 13.9 µM (inactive) | 13.9 µM (inactive) | 5.28 µM (inactive) | 18.5 µM (inactive) | 11.6 µM (inactive) | 21.1 µM (inactive) | 6.79 µM (inactive) |  | 
CC1CCC(C(=O)O)(C(Br)C(=O)O)CC1 (centres undefined) |  | > 100 µM (inactive) | > 100 µM (inactive) | > 100 µM (inactive) | > 100 µM (inactive) | > 100 µM (inactive) | > 100 µM (inactive) | > 100 µM (inactive) | > 100 µM (inactive) | > 100 µM (inactive) |  | > 100 µM (inactive) | > 100 µM (inactive) | > 100 µM (inactive) | > 100 µM (inactive) | > 100 µM (inactive) |  |  | > 100 µM (inactive) | 
Cn1c(N)nc(=O)c2c1N(C1OC(CO)C(O)C1O)CN2Cc1ccccc1 (centres undefined) | > 100 µM (inactive) | > 100 µM (inactive) |  | > 100 µM (inactive) | > 100 µM (inactive) | > 100 µM (inactive) | > 100 µM (inactive) | > 100 µM (inactive) | > 100 µM (inactive) | > 100 µM (inactive) | > 100 µM (inactive) | > 100 µM (inactive) | > 100 µM (inactive) | > 100 µM (inactive) | > 100 µM (inactive) | > 100 µM (inactive) | > 100 µM (inactive) |  |  | > 100 µM (inactive)
Cc1ccc(-n2cc(-c3ccc(Cl)cc3)c3c(NNC(=S)NCc4ccccc4)ncnc32)cc1 | 10.7 µM (inactive) | 4.99 µM (inactive) | 6.37 µM (inactive) | 23.3 µM (inactive) | 5.09 µM (inactive) |  | 13.1 µM (inactive) | 4.66 µM (inactive) | 9.29 µM (inactive) | 4.69 µM (inactive) | 16.3 µM (inactive) | 9.77 µM (inactive) | 6.22 µM (inactive) | 6.98 µM (inactive) | 11.3 µM (inactive) | 12.2 µM (inactive) | 20.3 µM (inactive) |  | 17.8 µM (inactive) | 13.6 µM (inactive)
Cc1ccccc1/C=N/C12CC3CC(CC(C3)C1)C2 | > 100 µM (inactive) | > 100 µM (inactive) |  | > 100 µM (inactive) | > 100 µM (inactive) | > 100 µM (inactive) | > 100 µM (inactive) | > 100 µM (inactive) | > 100 µM (inactive) | > 100 µM (inactive) | > 100 µM (inactive) | > 100 µM (inactive) | > 100 µM (inactive) | > 100 µM (inactive) | > 100 µM (inactive) | > 100 µM (inactive) | > 100 µM (inactive) |  |  | > 100 µM (inactive)
Cc1cc(Cl)ccc1N1C(=O)C(=O)C(c2nc3ccccc3s2)/C(=N\NC(=O)c2ccccc2O)C1=O (centres undefined) | > 100 µM (inactive) | > 100 µM (inactive) |  | > 100 µM (inactive) | > 100 µM (inactive) | > 100 µM (inactive) | > 100 µM (inactive) | > 100 µM (inactive) | > 100 µM (inactive) | > 100 µM (inactive) | > 100 µM (inactive) | > 100 µM (inactive) | > 100 µM (inactive) | > 100 µM (inactive) | > 100 µM (inactive) | > 100 µM (inactive) | > 100 µM (inactive) |  |  | > 100 µM (inactive)
O=C1C[C@@H]2[C@@H](CCC23CC3)N1 | > 100 µM (inactive) | > 100 µM (inactive) |  | > 100 µM (inactive) | > 100 µM (inactive) | > 100 µM (inactive) | > 100 µM (inactive) | > 100 µM (inactive) | > 100 µM (inactive) | > 100 µM (inactive) | > 100 µM (inactive) | > 100 µM (inactive) | > 100 µM (inactive) | > 100 µM (inactive) | > 100 µM (inactive) | > 100 µM (inactive) | > 100 µM (inactive) |  |  | > 100 µM (inactive)
N#CN=C(NCc1ccccc1)NCc1ccccc1 | > 42.9 µM (inactive) | > 75.3 µM (inactive) |  | > 100 µM (inactive) | > 100 µM (inactive) | > 100 µM (inactive) | > 100 µM (inactive) | 18.4 µM (inactive) | > 100 µM (inactive) | > 44 µM (inactive) | > 100 µM (inactive) | > 60.7 µM (inactive) | > 100 µM (inactive) | > 100 µM (inactive) | > 100 µM (inactive) | > 100 µM (inactive) | > 100 µM (inactive) |  |  | > 100 µM (inactive)
C=CCn1c(=O)c(C(=O)NC(=O)OCC)cn(C2CCCCC2)c1=O | > 100 µM (inactive) | > 100 µM (inactive) |  | > 100 µM (inactive) | > 100 µM (inactive) | > 100 µM (inactive) | > 100 µM (inactive) | > 100 µM (inactive) | > 100 µM (inactive) | > 100 µM (inactive) | > 100 µM (inactive) | > 100 µM (inactive) | > 100 µM (inactive) | > 100 µM (inactive) | > 100 µM (inactive) | > 100 µM (inactive) | > 100 µM (inactive) |  |  | > 100 µM (inactive)
CC[C@H](C)[C@H]1NC(=O)[C@@H](N)[C@@H](C)OC(=O)[C@H](Cc2ccc(OC)cc2)N(C)C(=O)[C@@H]2CCCN2C(=O)[C@H](CC(C)C)NC(=O)[C@@H](C)C(=O)[C@H](C(C)C)OC(=O)C[C@@H]1O (H-T[X36]LP[NMeY](Me); ester 1-C) |  | 18.4 µM (inactive) | > 100 µM (inactive) | 28.7 µM (inactive) | 12.9 µM (inactive) | 13.2 µM (inactive) | 44.2 µM (inactive) |  | 12.7 µM (inactive) | 19.5 µM (inactive) | 35.6 µM (inactive) | 93.8 µM (inactive) | 50.7 µM (inactive) | 11.7 µM (inactive) | 31.5 µM (inactive) | 10.1 µM (inactive) | 31.7 µM (inactive) | 33.7 µM (inactive) |  | 26.8 µM (inactive)
CCCCCCCCCCC(=O)CC(=O)c1c(O)cccc1O | 31 µM (inactive) | 24.9 µM (inactive) |  | 61.8 µM (inactive) | 28.4 µM (inactive) | 40.3 µM (inactive) | 38.5 µM (inactive) | 19.5 µM (inactive) | 21.1 µM (inactive) | 34.2 µM (inactive) | 38.1 µM (inactive) | 36.1 µM (inactive) | 35.7 µM (inactive) | 16.3 µM (inactive) | 19.7 µM (inactive) | 46.8 µM (inactive) | 35.9 µM (inactive) |  |  | 36.4 µM (inactive)
C[N+](C)(C)C1(C(=O)[O-])CC1 |  | > 100 µM (inactive) | > 100 µM (inactive) | > 100 µM (inactive) | > 100 µM (inactive) | > 100 µM (inactive) | > 100 µM (inactive) | > 100 µM (inactive) | > 100 µM (inactive) | > 100 µM (inactive) |  | > 100 µM (inactive) | > 100 µM (inactive) | > 100 µM (inactive) | > 100 µM (inactive) | > 100 µM (inactive) | > 100 µM (inactive) | > 100 µM (inactive) |  | > 100 µM (inactive)
CN(C)CC(C)(C)C(=O)/C=C/c1ccc(/C=C/C(=O)C(C)(C)CN(C)C)cc1 | 1.03 µM (active) | 0.202 µM (active) |  | 1.96 µM (inactive) | 2.32 µM (inactive) | 1.58 µM (inactive) | 1.45 µM (inactive) | 1.26 µM (inactive) | 1.97 µM (inactive) | 0.706 µM (active) | 2.81 µM (inactive) | 1.6 µM (inactive) | 2.39 µM (inactive) | 1.61 µM (inactive) | 1.82 µM (inactive) | 1.71 µM (inactive) | 1.87 µM (inactive) |  |  | 2.13 µM (inactive)
CCCCCCCCCCCC(=O)Oc1c(Cl)cc(Cl)c(OC(=O)C(=O)Oc2c(Cl)cc(Cl)c(OC(=O)CCCCCCCCCCC)c2Cl)c1Cl | > 100 µM (inactive) |  | > 100 µM (inactive) | > 100 µM (inactive) | > 100 µM (inactive) | > 100 µM (inactive) | > 100 µM (inactive) | > 100 µM (inactive) | > 100 µM (inactive) | > 100 µM (inactive) | > 100 µM (inactive) | > 100 µM (inactive) | > 100 µM (inactive) |  | > 100 µM (inactive) | > 100 µM (inactive) | > 100 µM (inactive) | > 100 µM (inactive) |  | 
COC(=O)C(C(=O)C(=O)Nc1ccc([N+](=O)[O-])cc1[N+](=O)[O-])c1nc2ccc(Cl)cc2nc1O (centres undefined) | > 100 µM (inactive) | > 100 µM (inactive) |  | > 100 µM (inactive) | 99.8 µM (inactive) | 68.2 µM (inactive) | 40.8 µM (inactive) | > 100 µM (inactive) | 89.9 µM (inactive) | > 100 µM (inactive) | > 100 µM (inactive) | > 100 µM (inactive) | > 100 µM (inactive) | > 100 µM (inactive) | > 100 µM (inactive) | > 100 µM (inactive) | > 100 µM (inactive) |  |  | > 100 µM (inactive)
